Measured values as given in the Kinase Knowledgebase extract (Sharma et al. 2016).

Assays:
[1] = target: PIK3CA (human) (UniProt P42336); assay: Assessment of PIK3CA Kinase Activity
[2] = target: PIK3CD (Human) (UniProt O00329); assay: Assessment of PIK3CD Kinase Activity
[3] = target: PIK3CB (Human) (UniProt P42338); assay: Assessment of PIK3CB Kinase Activity
Sequence of PIK3CB (Human) (P42338 whole entry, looked up): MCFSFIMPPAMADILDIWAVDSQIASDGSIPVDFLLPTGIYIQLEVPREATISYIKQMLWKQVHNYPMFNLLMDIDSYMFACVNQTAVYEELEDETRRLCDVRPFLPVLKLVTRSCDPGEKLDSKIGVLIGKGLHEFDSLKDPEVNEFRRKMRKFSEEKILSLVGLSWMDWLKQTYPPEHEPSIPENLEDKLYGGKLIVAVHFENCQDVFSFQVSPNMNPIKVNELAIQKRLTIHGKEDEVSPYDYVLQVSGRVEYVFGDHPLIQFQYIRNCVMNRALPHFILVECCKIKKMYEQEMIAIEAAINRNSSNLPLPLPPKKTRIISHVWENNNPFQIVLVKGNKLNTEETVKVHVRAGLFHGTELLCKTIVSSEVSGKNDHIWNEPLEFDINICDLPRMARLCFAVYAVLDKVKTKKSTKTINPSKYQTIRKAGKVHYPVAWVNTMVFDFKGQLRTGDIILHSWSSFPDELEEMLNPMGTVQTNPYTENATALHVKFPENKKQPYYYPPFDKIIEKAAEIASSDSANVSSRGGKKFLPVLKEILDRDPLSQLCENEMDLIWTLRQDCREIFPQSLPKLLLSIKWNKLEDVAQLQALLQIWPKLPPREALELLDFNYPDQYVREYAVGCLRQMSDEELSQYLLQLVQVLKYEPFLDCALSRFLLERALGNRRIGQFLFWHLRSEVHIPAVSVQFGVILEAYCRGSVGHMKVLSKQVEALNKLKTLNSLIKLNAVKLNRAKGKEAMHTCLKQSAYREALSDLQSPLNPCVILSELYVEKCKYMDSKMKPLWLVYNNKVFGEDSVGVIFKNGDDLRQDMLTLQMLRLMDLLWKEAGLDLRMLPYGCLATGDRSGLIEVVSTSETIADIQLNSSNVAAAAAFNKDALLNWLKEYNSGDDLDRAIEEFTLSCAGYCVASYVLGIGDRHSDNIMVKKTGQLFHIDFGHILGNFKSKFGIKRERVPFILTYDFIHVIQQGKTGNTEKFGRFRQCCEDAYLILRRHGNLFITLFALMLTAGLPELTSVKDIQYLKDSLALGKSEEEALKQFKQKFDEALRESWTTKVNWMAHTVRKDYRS

Sequence of PIK3CD (Human) (O00329 whole entry, looked up): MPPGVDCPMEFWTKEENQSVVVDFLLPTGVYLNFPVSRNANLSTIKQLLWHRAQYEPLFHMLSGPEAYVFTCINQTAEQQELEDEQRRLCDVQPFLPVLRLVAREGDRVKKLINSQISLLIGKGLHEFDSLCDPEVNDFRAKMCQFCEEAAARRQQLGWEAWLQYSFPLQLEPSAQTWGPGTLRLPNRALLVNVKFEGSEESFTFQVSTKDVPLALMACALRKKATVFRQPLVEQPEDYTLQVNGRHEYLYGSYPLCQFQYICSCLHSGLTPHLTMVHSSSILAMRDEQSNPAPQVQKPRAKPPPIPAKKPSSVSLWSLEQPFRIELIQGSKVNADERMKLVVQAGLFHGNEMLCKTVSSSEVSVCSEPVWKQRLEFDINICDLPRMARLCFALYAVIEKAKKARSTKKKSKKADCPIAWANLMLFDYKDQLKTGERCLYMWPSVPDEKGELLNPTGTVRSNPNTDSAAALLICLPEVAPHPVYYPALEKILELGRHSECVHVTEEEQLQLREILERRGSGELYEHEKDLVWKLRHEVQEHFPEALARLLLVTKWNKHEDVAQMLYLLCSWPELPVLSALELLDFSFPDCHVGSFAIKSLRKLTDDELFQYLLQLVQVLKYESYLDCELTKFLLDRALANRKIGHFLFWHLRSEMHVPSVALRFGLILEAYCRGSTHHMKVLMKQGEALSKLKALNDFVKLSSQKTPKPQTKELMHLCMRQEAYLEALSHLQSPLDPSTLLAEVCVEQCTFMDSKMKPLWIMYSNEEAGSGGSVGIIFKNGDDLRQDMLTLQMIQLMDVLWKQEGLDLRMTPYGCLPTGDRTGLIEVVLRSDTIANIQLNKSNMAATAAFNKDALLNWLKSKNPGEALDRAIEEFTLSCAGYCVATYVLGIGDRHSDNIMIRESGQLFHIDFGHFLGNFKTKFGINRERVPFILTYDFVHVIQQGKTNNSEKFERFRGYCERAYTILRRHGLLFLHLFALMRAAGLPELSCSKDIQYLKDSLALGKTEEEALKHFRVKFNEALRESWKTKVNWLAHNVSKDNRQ
Sequence of PIK3CA (human) (P42336 whole entry, looked up): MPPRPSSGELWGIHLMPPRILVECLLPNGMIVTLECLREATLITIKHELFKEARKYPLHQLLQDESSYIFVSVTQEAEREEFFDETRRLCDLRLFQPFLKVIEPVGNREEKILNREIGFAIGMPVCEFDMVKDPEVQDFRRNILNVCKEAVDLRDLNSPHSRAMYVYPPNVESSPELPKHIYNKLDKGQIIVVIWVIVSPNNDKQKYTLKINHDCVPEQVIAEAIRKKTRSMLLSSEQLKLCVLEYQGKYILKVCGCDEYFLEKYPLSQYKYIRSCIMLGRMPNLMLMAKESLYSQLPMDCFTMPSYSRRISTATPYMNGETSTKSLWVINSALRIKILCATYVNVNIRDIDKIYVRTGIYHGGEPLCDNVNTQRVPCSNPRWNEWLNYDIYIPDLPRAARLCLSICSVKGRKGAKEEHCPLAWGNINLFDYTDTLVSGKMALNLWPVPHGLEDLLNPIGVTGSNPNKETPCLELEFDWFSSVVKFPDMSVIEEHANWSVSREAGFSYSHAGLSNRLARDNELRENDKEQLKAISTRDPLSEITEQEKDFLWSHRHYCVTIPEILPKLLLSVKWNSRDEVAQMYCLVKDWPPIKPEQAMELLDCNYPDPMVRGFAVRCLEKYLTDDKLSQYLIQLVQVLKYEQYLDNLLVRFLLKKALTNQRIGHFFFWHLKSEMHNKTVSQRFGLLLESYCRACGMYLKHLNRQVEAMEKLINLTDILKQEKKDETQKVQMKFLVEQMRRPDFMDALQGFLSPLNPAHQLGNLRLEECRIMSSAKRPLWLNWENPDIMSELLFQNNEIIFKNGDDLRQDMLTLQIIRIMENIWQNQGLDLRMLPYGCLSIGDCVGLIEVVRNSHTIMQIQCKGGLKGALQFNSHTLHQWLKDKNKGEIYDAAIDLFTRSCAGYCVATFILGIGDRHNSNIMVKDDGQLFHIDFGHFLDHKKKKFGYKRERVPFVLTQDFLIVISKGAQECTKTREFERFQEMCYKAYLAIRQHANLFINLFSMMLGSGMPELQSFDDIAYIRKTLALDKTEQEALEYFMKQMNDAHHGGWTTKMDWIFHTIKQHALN

Row | Structure (SMILES) | IC50 [1] [nM] | IC50 [2] [nM] | IC50 [3] [nM]
1 | COc1cccc2c1nc(C(F)F)n2-c1nc(N2CCOCC2)nc(N(CCCN(C)C)C2CCN(S(=O)(=O)CCl)CC2)n1 | 100 to 1000 | < 100 | –
2 | COc1cc(N)cc2c1nc(C(F)F)n2-c1nc(N2CCOCC2)nc(N2CCN(S(=O)(=O)CCN(C)C)CC2)n1 | < 100 | < 100 | 100 to 1000
3 | COc1cccc2c1nc(C(F)F)n2-c1nc(-c2ccc(S(=O)(=O)N3CCN(C)CC3)cc2)nc(N2CCOCC2)n1 | 100 to 1000 | – | –
4 | COc1cccc2c1nc(C(F)F)n2-c1nc(N2CCOCC2)nc(N2CCC[C@H](N(CCCN(C)C)S(C)(=O)=O)C2)n1 | 100 to 1000 | 100 to 1000 | –
5 | COc1cccc2c1nc(C(F)F)n2-c1nc(OC2CCN(S(=O)(=O)CCN3CCOCC3)CC2)nc(N2CCOCC2)n1 | < 100 | < 100 | –
6 | CN(C)CCS(=O)(=O)N1CCN(c2nc(N3CCOCC3)nc(-n3c(C(F)F)nc4ccccc43)n2)CC1 | 100 to 1000 | 100 to 1000 | –
7 | COc1cccc2c1nc(C(F)F)n2-c1nc(N2CCOCC2)c2cnn(C3CCN(S(=O)(=O)CCN(C)C)CC3)c2n1 | < 100 | 100 to 1000 | 100 to 1000
8 | COc1cccc2c1nc(C(F)F)n2-c1nc(-c2ccc(N(C)S(=O)(=O)CCN(C)C)cc2)nc(N2CCOCC2)n1 | 100 to 1000 | 100 to 1000 | –
9 | CN(C)CCCOc1cccc2c1nc(C(F)F)n2-c1nc(OC2CCN(S(C)(=O)=O)CC2)nc(N2CCOCC2)n1 | 100 to 1000 | 100 to 1000 | –
